According to ChEMBL document CHEMBL1129780, “Adenine-arginine mimetics as bisubstrate analog inhibitors of cAMP-dependent protein kinase” (Bioorg Med Chem Lett, 1996):

Tests used:
Assay type in all cases: protein-complex assay
[1] = molecular target: T1, cAMP-dependent protein kinase A (Bos taurus, UniProt P00515+P00517+P05131+P31322); assay: Inhibitory constant for Protein Kinase A
[2] = molecular target: T1, cAMP-dependent protein kinase A; assay: Inhibition of PKA at 100 uM ATP
[3] = molecular target: T1, cAMP-dependent protein kinase A; assay: Inhibition of PKA at 2 mM ATP

Ki [1] | IC50 [2] | IC50 [3] | SMILES
15 µM | 160 µM | 1100 µM | Nc1ncnc2c1ncn2[C@@H]1O[C@H](CO)[C@@H](O)[C@H]1O [ADENOSINE]
150 µM | 1700 µM | 6200 µM | N=C(N)NCCOCCOCCn1cnc2c(N)ncnc21
38 µM | 420 µM | 790 µM | N=C(N)NCCn1cnc2c(N)ncnc21
29 µM | 320 µM | 760 µM | N=C(N)NCCOCCn1cnc2c(N)ncnc21
